# Measurements published in patent US9907860B2, “Conjugated molecules comprising a peptide derived from the CD4 receptor coupled to an anionic polypeptide for the treatment of AIDS” (INSTITUT PASTEUR, priority 2014, dated 2018).
# Experiments:
# [1] = tested on: SHIV162p3 viral strain (B-R5); assay: Antiviral activity on TZM-bl cells, SHIV162p3 strain; assay type: cell-based; details: luciferase, 48 h, clade-tropism B-R5
# Description: (§1) The antiviral activity of the tested compounds was determined by pre-incubating 10^4 TZM-bl cells/well in a 96-well plate for 30 min at 37° C. and 5% CO2 with or without a serial dilution of the compound. Next, 200 TCID50 of viruses were added to each well and cultures were incubated for 48 h before luciferase activity was quantified. Each compound was tested in triplicate in a single experiment. Antiviral activity was expressed as the percentage of viral inhibition compared to the untreated control and plotted against the compound concentration. Next, non-linear regression analysis was used to calculate the 50% effective concentration (EC50).
# (§2) The miniCD4 conjugates were then evaluated for their antiviral activity on TZM-bl cells that express Luciferase under the control of the HIV LTR (collaboration G. Vanham, Anvers) according to the protocol described above. All antiviral results are reported in the table below in the form of EC50 values (nM).
# [2] = Cytotoxic activity, WST-1 cell proliferation assay; assay type: cell-based; details: human
# Description: Cytotoxicity was determined using the water-soluble tetrazolium-1 (WST-1) cell proliferation assay, which is based on the cleavage of the tetrazolium salt WST-1 to a formazan dye by cellular dehydrogenases. Because this bioreduction is dependent on the glycolytic production of NAD(P)H in viable cells, the amount of formazan dye formed is correlated directly to the number of viable cells in a culture. Quantification is performed by measuring absorbance at 450 nm in a multiwell plate reader. An amount of 10^4 cells was plated per well in a 96-well plate, and a serial dilution of compound was added. Forty eight hours later, cell proliferation reagent was added and cell viability was measured compared to untreated control cultures. Cell viability was plotted against the compound concentration, and nonlinear regression analysis was performed to evaluate the 50% cytotoxic concentration (CC50).
# The miniCD4 conjugates were then evaluated for their cytotoxic activity according to the protocol described above. All cytotoxic results are reported in the table below in the form of CC50 values (nM).
# [3] = tested on: Bal viral strain (B-R5); assay: microbe, parasite or virus in culture; assay type: cell-based, HIV; details: Human immunodeficiency virus 1, BAL; TZM-bl cells, luciferase, 48 h; clade-tropism B-R5
# Description: as §1, §2
# [4] = tested on: MP568 (CRF02) viral strain (AG-R5); assay: microbe, parasite or virus in culture; assay type: cell-based, HIV; details: Human immunodeficiency virus 1, TZM-bl, 48 h, read-out: EC50, viral strain MP568 (CRF02)
# Description: as §1, §2
# [5] = tested on: SF162 viral strain (B-R5); assay: microbe, parasite or virus in culture; assay type: cell-based, HIV; details: Human immunodeficiency virus 1; TZM-bl cells, luciferase, 48 h; clade-tropism B-R5
# Description: as §1, §2
# [6] = tested on: MN viral strain (B-X4); assay: microbe, parasite or virus in culture; assay type: cell-based, HIV; details: Human immunodeficiency virus 1; TZM-bl cells, luciferase, 48 h; clade-tropism B-X4
# Description: as §1, §2
# [7] = tested on: VI829 viral strain (C-R5); assay: microbe, parasite or virus in culture; assay type: cell-based, HIV; details: Human immunodeficiency virus 1; TZM-bl cells, luciferase, 48 h; clade-tropism C-R5
# Description: as §1, §2
# [8] = tested on: IIIB viral strain (B-X4); assay: microbe, parasite or virus in culture; assay type: cell-based, HIV; details: Human immunodeficiency virus 1, IIIB; TZM-bl cells, luciferase, 48 h; clade-tropism B-X4
# Description: as §1, §2
# [9] = tested on: Ca10-3 (CRF01) viral strain (AE-X4); assay: microbe, parasite or virus in culture; assay type: cell-based, HIV; details: Human immunodeficiency virus 1, TZM-bl, 48 h, read-out: EC50, viral strain Ca10-3 (CRF01)
# Description: as §1, §2
# [10] = tested on: pREJO.c/2864 cl2 viral strain (B-R5); assay: microbe, parasite or virus in culture; assay type: cell-based, HIV; details: Human immunodeficiency virus 1, TZM-bl, 48 h, read-out: EC50, viral strain pREJO.c/2864 cl2
# Description: as §1, §2
# [11] = tested on: VI824 viral strain (D-R5); assay: microbe, parasite or virus in culture; assay type: cell-based, HIV; details: Human immunodeficiency virus 1, TZM-bl, 48 h, read-out: EC50, viral strain VI824
# Description: as §1, §2
# [12] = tested on: VI820 viral strain (A-X4R5); assay: microbe, parasite or virus in culture; assay type: cell-based, HIV; details: Human immunodeficiency virus 1, TZM-bl, 48 h, read-out: EC50, viral strain VI820
# Description: as §1, §2
# [13] = tested on: p246F10 viral strain (C-R5); assay: microbe, parasite or virus in culture; assay type: cell-based, HIV; details: Human immunodeficiency virus 1, TZM-bl, 48 h, read-out: EC50, viral strain p246F10
# Description: as §1, §2
# [14] = tested on: VI1888 (CRF01) viral strain (AE-R5); assay: microbe, parasite or virus in culture; assay type: cell-based, HIV; details: Human immunodeficiency virus 1, TZM-bl, 48 h, read-out: EC50, viral strain VI1888 (CRF01)
# Description: as §1, §2
structure (smiles),measurement,setting,value
"Cc1cc(C)c(Nc2ccnc(Nc3ccc(C#N)cc3)n2)c(C)c1 [Dapivirine (TMC120), Dapivirine]",EC50,[1],> 1000 nM
same,CC50 at 48 h,[2],2520 nM
same,EC50,[3],1.65 nM
same,EC50,[4],1.1 nM
same,EC50,[5],1.3 nM
same,EC50,[6],1.5 nM
same,EC50,[7],1.3 nM
same,EC50,[8],0.84 nM
same,EC50,[9],1.3 nM
same,EC50,[10],1.6 nM
same,EC50,[11],1.2 nM
same,EC50,[12],1.95 nM
same,EC50,[13],1.4 nM
same,EC50,[14],2.1 nM
